According to patent US12338228B2, “NLRP3 modulators” (Innate Tumor Immunity, Inc., priority 2019, dated 2025):

What follows are compounds tested against T1, NLRP3 (Homo sapiens, UniProt Q96P20) (assay: Measurement of IL-1β production in PMA-differentiated THP-1 cells (NLRP3 hIL1β)).
T1 construct: host or cells: PMA-differentiated THP-1 cells
T1 sequence (Q96P20 whole entry): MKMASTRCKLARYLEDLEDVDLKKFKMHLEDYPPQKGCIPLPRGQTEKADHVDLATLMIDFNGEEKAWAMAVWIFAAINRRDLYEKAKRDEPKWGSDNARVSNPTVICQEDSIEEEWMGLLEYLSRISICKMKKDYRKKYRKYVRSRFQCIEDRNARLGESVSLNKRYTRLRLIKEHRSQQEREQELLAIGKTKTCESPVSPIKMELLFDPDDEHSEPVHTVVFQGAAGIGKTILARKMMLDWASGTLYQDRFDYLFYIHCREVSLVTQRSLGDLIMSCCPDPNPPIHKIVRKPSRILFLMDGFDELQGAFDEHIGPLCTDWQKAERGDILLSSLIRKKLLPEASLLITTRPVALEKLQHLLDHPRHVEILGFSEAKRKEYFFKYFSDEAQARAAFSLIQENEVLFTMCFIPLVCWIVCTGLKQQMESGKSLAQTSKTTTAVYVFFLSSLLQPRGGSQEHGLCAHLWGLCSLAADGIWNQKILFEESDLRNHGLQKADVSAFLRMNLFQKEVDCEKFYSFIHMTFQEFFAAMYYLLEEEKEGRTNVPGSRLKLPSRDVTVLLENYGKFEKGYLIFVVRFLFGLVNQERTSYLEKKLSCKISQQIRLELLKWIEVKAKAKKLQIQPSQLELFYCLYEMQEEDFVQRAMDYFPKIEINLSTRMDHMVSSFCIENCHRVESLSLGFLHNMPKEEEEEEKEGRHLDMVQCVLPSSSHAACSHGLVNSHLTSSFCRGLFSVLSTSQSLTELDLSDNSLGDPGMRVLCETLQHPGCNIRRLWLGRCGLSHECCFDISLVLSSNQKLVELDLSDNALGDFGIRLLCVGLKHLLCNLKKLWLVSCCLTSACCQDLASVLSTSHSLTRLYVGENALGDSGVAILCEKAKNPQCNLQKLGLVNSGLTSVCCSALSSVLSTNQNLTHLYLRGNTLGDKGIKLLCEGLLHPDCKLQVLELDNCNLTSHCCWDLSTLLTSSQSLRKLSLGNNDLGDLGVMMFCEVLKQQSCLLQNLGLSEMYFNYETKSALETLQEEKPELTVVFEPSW
Type: cell-based
Protocol: Serial dilutions of compounds in DMSO were added to low volume 384 well plates at 100 nl/well using an ECHO 550 acoustic dispenser (Labcyte) to achieve final starting concentration of 10 μM in assay.
THP-1 cells in RPMI (Gibco, 11875) media with 10% FBS at a density of 1×10^6 cell/ml in a T175 flask were treated with a final concentration of phorbol 12-myristate 13-acetate (PMA) (Sigma,P1585) of 50 ng/ml overnight at 37° C. at 5% CO2 for differentiation. Cells were harvested the next day after rinsing well with dPBS using 0.5% trypsin. A cell solution was prepared of 1×10^6 cells/ml for 50,000 cells in 50 μl/well in RPMI media with 2% FBS. Cells were plated using a multichannel pipette onto the compound dilutions in Greiner, 384 well, black clear bottom tissue culture treated plates (781090). The plates were incubated in 37° C. incubator at 5% CO2 for 2 hours.
After the 2 hour incubation, the cell plates were spun in the centrifuge for 5 minutes at 1200 rpm. Using the Felix (CyBio), 8 μl of the supernatant was transferred to 384 well, low volume, white proxy plates. (Perkin Elmer, 6008230). A human IL1beta hTRF kit was used to analyze the supernatant (CISBIO, 62HIL1BPEG). The kit instructions were followed for preparing the IL1Beta standard curve and then the antibodies from the kit were diluted 1:40 rather than 1:20 as kit instructed. Once combined, the antibodies were added across the plates, 5 μl/well. The plates were sealed and incubated at 4° C. overnight. The plates were then read on the Perkin Elmer EnVision at 665/615 nm using the hTRF laser.
For “3-((2-Amino-3-cyclopentyl-7-(1H-pyrazol-5-yl)quinolin-4-yl)amino)propan-1-ol [Example 16]”, the EC50 was 0.26 µM. `Nc1nc2cc(-c3cc[nH]n3)ccc2c(NCCCO)c1F` [Example 1, 3-((2-Amino-3-fluoro-7-(1H-pyrazol-3-yl)quinolin-4-yl)amino)propan-1-ol] gave an EC50 of 0.16 µM. For `Nc1nc2cc(-c3cc[nH]n3)ccc2c(N[C@H]2CC[C@H](O)C2)c1F` [Example 2, (1 S,3 S)-3-((2-Amino-3-fluoro-7-(1H-pyrazol-3-yl)quinolin-4-yl)amino)cyclopentan-1-ol], the EC50 was 0.6 µM. For `Nc1nc2cc(-c3cc[nH]n3)ccc2c(NCCCO)c1Cl` [Example 3, 3-((2-Amino-3-chloro-7-(1H-pyrazol-3-yl)quinolin-4-yl)amino)propan-1-ol], the EC50 was 0.35 µM. For `Nc1cc(NCCCO)c2ccc(-c3cc[nH]n3)c(F)c2n1` [Example 4, 3-((2-Amino-8-fluoro-7-(1H-pyrazol-3-yl)quinolin-4-yl)amino)propan-1-ol], the EC50 was 0.33 µM. In the case of `Cc1cc(-c2cc[nH]n2)cc2nc(N)cc(N[C@H]3CC[C@H](O)C3)c12` [Example 5, (1S,3S)-3-((2-Amino-5-methyl-7-(1H-pyrazol-3-yl)quinolin-4-yl)amino)cyclopentan-1-ol], the EC50 is reported as 4 µM. `Cc1cc(-c2cc[nH]n2)cc2nc(N)cc(NCc3cc[nH]n3)c12` [Example 6, N4-((1H-Pyrazol-3-yl)methyl)-5-methyl-7-(1H-pyrazol-3-yl)quinoline-2,4-diamine] showed an EC50 of 1.4 µM. With `Nc1cc(NCCCO)c2c(F)cc(-c3cc[nH]n3)cc2n1` [Example 7, 3-((2-Amino-5-fluoro-7-(1H-pyrazol-3-yl)quinolin-4-yl)amino)propan-1-ol] the EC50 was 0.23 µM. Compound `Nc1cc(N[C@H]2CC[C@H](O)C2)c2c(F)cc(-c3cc[nH]n3)cc2n1` [Example 8, (1S,3S)-3-((2-Amino-5-fluoro-7-(1H-pyrazol-3-yl)quinolin-4-yl)amino)cyclopentan-1-ol] has an EC50 of 0.23 µM. `Nc1cc(NCc2cc[nH]n2)c2c(F)cc(-c3cc[nH]n3)cc2n1` [Example 9, N4-((1H-Pyrazol-3-yl)methyl)-5-fluoro-7-(1H-pyrazol-3-yl)quinoline-2,4-diamine] gave an EC50 of 0.29 µM. Compound `Nc1cc(N[C@H]2CCOC2)c2c(F)cc(-c3cc[nH]n3)cc2n1` [Example 10, (S)-5-Fluoro-7-(1H-pyrazol-3-yl)-N4-(tetrahydrofuran-3-yl)quinoline-2,4-diamine] has an EC50 of 0.85 µM. Compound `Nc1cc(NCc2ccn[nH]2)c2ccc(-c3ccn[nH]3)c(F)c2n1` [Example 11, N4-((1H-Pyrazol-5-yl)methyl)-8-fluoro-7-(1H-pyrazol-5-yl)quinoline-2,4-diamine] has an EC50 of 0.71 µM. With `Cc1c(N)nc2cc(-c3ccn[nH]3)ccc2c1NCCCO` [Example 12, 3-((2-Amino-3-methyl-7-(1H-pyrazol-5-yl)quinolin-4-yl)amino)propan-1-ol] the EC50 was 2.9 µM. `Cc1c(N)nc2cc(-c3ccn[nH]3)ccc2c1NCc1ccn[nH]1` [Example 13, N4-((1H-Pyrazol-5-yl)methyl)-3-methyl-7-(1H-pyrazol-5-yl)quinoline-2,4-diamine] gave an EC50 of 0.45 µM. `Nc1nc2cc(-c3ccn[nH]3)ccc2c(NCCO)c1C1CCCC1` [Example 14, 2-((2-Amino-3-cyclopentyl-7-(1H-pyrazol-5-yl)quinolin-4-yl)amino)ethan-1-ol] gave an EC50 of 0.26 µM. Work on `Nc1nc2cc(-c3ccn[nH]3)ccc2c(NCc2ccccn2)c1C1CCCC1` [Example 15, 3-Cyclopentyl-7-(1H-pyrazol-5-yl)-N4-(pyridin-2-ylmethyl)quinoline-2,4-diamine] yielded an EC50 of 0.44 µM.
